Patent US12539292B2, “BRM targeting compounds and associated methods of use” (Arvinas Operations, Inc., priority 2018, dated 2026)
Where two headings read alike, the source gives them in different places.

Target: T1, BRM (Homo sapiens, UniProt P51531)
T1 construct: In-Cell Western Screen of BRM Degradation in SW1573 Cells; endogenous in cells; host or cells: SW1573
Test: In-cell Western screen of BRM degradation in SW1573 cells (Dmax and DC50)
Type: cell-based
Method in brief: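 SW1573 cells were treated with compound overnight (18-20 h; final DMSO 0.1%), then fixed in 4% PFA, permeabilized with Triton X-100 and blocked. BRM was detected by in-cell Western using 800 nm anti-rabbit and 680 nm anti-mouse secondaries, and Dmax and DC50 were derived from the LI-COR Odyssey signal.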

[1] = target protein degradation, read-out: BRM DC50
[2] = BRM degradation, SW1573 cells, read-out: DC50
[3] = BRM degradation, SW1573 cells, Table 2D, read-out: *DC50

T1 sequence (P51531 whole entry): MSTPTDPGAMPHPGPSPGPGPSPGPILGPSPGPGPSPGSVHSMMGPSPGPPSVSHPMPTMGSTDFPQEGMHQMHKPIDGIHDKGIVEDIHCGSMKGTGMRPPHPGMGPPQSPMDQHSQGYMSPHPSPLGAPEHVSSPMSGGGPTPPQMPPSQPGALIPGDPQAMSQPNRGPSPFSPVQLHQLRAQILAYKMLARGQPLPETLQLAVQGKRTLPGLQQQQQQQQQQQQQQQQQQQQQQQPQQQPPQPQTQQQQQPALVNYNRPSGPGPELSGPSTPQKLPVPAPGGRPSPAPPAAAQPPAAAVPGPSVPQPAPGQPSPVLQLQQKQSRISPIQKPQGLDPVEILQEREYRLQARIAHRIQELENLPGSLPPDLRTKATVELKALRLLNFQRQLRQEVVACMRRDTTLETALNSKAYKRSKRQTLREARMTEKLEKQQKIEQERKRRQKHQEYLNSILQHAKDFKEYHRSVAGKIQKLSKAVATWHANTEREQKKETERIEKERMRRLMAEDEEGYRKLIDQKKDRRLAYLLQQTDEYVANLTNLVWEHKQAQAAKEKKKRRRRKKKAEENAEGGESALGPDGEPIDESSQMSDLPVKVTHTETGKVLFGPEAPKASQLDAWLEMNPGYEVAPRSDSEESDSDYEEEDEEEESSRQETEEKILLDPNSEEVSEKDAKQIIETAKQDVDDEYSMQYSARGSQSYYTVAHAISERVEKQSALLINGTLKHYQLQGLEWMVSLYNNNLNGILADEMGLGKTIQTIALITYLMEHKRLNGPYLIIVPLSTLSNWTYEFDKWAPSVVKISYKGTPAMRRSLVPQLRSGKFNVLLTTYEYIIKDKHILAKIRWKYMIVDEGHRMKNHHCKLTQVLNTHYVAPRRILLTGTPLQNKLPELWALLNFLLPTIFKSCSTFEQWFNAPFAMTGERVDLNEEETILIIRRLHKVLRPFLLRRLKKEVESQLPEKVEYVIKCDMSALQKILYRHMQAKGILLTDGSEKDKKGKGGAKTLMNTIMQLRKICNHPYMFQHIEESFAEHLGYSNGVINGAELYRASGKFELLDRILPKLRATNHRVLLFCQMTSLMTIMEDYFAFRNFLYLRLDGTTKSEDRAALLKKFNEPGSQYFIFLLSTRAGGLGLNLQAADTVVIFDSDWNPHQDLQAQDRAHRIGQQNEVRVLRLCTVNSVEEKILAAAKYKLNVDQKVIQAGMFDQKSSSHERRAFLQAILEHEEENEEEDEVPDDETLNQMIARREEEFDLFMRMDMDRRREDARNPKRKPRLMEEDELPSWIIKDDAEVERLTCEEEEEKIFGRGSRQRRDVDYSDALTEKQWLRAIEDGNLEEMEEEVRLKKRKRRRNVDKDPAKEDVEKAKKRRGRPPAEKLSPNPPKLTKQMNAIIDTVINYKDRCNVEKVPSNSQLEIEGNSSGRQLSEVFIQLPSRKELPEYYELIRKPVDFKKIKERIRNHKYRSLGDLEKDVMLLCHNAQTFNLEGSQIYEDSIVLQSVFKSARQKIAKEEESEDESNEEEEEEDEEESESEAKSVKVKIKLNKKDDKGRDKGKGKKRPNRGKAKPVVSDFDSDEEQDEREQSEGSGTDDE

| SMILES | DC50 [1] [nM] | DC50 [2] [nM] | DC50 [3] [nM] | other results |
| --- | --- | --- | --- | --- |
| Cc1nccn1-c1ccc([C@H](C)NC(=O)[C@@H]2C[C@@H](O)CN2C(=O)[C@@H](c2cc(OCCN3CCC(O[C@H]4C[C@H](Oc5cc(N6C7CCC6CN(c6cc(-c8ccccc8O)nnc6N)C7)ccn5)C4)CC3)no2)C(C)C)cn1 [compound 398, (2S,4R)-1-((2R)-2-(3-(2-(4-((1r,3R)-3-((4-(3-(3-amino-6-(2-hydroxyphenyl)pyridazin-4-yl)-3,8-diazabicyclo[3.2.1]octan-8-yl)pyridin-2-yl)oxy)cyclobutoxy)piperidin-1-yl)ethoxy)isoxazol-5-yl)-3-methylbutanoyl)-4-hydroxy-N-((S)-1-(6-(2-methyl-1H-imidazol-1-yl)pyridin-3-yl)ethyl)pyrrolidine-2-carboxamide] | < 2.5 | – | – | Dmax (SW1573, % degraded, when tested at the top concentration of between 0.3 and 10 μM, read-out: BRM Dmax (%)): > 75% |
| Cc1ncsc1-c1ccc([C@H](CO)NC(=O)[C@@H]2C[C@@H](O)CN2C(=O)[C@@H](c2cc(N3CCC(CN4CCC(O[C@H]5C[C@H](Oc6cc(N7C8CCC7CN(c7cc(-c9ccccc9O)nnc7N)C8)ccn6)C5)CC4)CC3)no2)C(C)C)cc1 [compound 653, (2S,4R)-1-((2R)-2-(3-(4-((4-((1r,3r)-3-((4-(3-(3-amino-6-(2-hydroxyphenyl)pyridazin-4-yl)-3,8-diazabicyclo[3.2.1]octan-8-yl)pyridin-2-yl)oxy)cyclobutoxy)piperidin-1-yl)methyl)piperidin-1-yl)isoxazol-5-yl)-3-methylbutanoyl)-4-hydroxy-N-((R)-2-hydroxy-1-(4-(4-methylthiazol-5-yl)phenyl)ethyl)pyrrolidine-2-carboxamide] | – | < 2.5 | – | Dmax (BRM degradation, SW1573 cells, read-out: Dmax (% degraded)): > 75% |
| Cc1ncsc1-c1ccc([C@H](C)NC(=O)[C@@H]2C[C@@H](O)CN2C(=O)[C@H](c2cc(OCC#Cc3ncc(O[C@H]4C[C@H](Oc5cc(N6C7CCC6CN(c6cc(-c8ccccc8O)nnc6N)C7)ccn5)C4)cn3)no2)C(C)C)cc1 [compound 231, (2S,4R)-1-((2S)-2-(3-((3-(5-((1r,3S)-3-((4-(3-(3-amino-6-(2-hydroxyphenyl)pyridazin-4-yl)-3,8-diazabicyclo[3.2.1]octan-8-yl)pyridin-2-yl)oxy)cyclobutoxy)pyrimidin-2-yl)prop-2-yn-1-yl)oxy)isoxazol-5-yl)-3-methylbutanoyl)-4-hydroxy-N-((S)-1-(4-(4-methylthiazol-5-yl)phenyl)ethyl)pyrrolidine-2-carboxamide] | – | < 2.5 | – | Dmax (BRM degradation, SW1573 cells, tested at the top concentration of between 0.3 and 10 μM, read-out: Dmax (%) (% degraded)): > 75% |
| Cc1ncsc1-c1ccc([C@H](C)NC(=O)[C@@H]2C[C@@H](O)CN2C(=O)[C@@H](c2cc(OCC[C@H]3CCN(C[C@H]4C[C@H](Oc5cc(N6C7CCC6CN(c6cc(-c8ccccc8O)nnc6N)C7)ccn5)C4)C[C@@H]3C)no2)C(C)C)cc1 (racemic) [compound 577, (2S,4R)-1-((2R)-2-(3-(2-((3R,4R)-1-(((1r,3R)-3-((4-(3-(3-amino-6-(2-hydroxyphenyl)pyridazin-4-yl)-3,8-diazabicyclo[3.2.1]octan-8-yl)pyridin-2-yl)oxy)cyclobutyl)methyl)-3-methylpiperidin-4-yl)ethoxy)isoxazol-5-yl)-3-methylbutanoyl)-4-hydroxy-N-((S)-1-(4-(4-methylthiazol-5-yl)phenyl)ethyl)pyrrolidine-2-carboxamide] | – | – | < 2.5 | Dmax (BRM degradation, SW1573 cells, Table 2D, read-out: **Dmax (%) (% degraded)): > 75% |
| Cc1ncsc1-c1ccc([C@H](C)NC(=O)[C@@H]2C[C@@H](O)CN2C(=O)[C@H](c2cc(N3CCC4(CC3)CN(C[C@H]3C[C@H](Oc5cc(N6C7CCC6CN(c6cc(-c8ccccc8O)nnc6N)C7)ccn5)C3)CCO4)no2)C(C)C)cc1 [compound 623, (2S,4R)-1-((2S)-2-(3-(4-(((1r,3S)-3-((4-(3-(3-amino-6-(2-hydroxyphenyl)pyridazin-4-yl)-3,8-diazabicyclo[3.2.1]octan-8-yl)pyridin-2-yl)oxy)cyclobutyl)methyl)-1-oxa-4,9-diazaspiro[5.5]undecan-9-yl)isoxazol-5-yl)-3-methylbutanoyl)-4-hydroxy-N-((S)-1-(4-(4-methylthiazol-5-yl)phenyl)ethyl)pyrrolidine-2-carboxamide] | – | – | > 30 | – |
| Cc1ncsc1-c1ccc(CNC(=O)[C@@H]2C[C@@H](O)CN2C(=O)[C@@H](c2cc(OCCN3CCN(CCOCCn4cc(-c5cc(-c6ccccc6O)nnc5N)cn4)CC3)no2)C(C)C)cc1 [compound 124, (2S,4R)-1-((R)-2-(3-(2-(4-(2-(2-(4-(3-amino-6-(2-hydroxyphenyl)pyridazin-4-yl)-1H-pyrazol-1-yl)ethoxy)ethyl)piperazin-1-yl)ethoxy)isoxazol-5-yl)-3-methylbutanoyl)-4-hydroxy-N-(4-(4-methylthiazol-5-yl)benzyl)pyrrolidine-2-carboxamide] | – | > 30 | – | Dmax (BRM degradation, SW1573 cells, when tested at the top concentration of between 0.3 and 10 μM, read-out: Dmax (%) (% degraded)): > 75% |
| Cc1cc([C@H](C(=O)N2C[C@H](O)C[C@H]2C(=O)N[C@@H](C)c2ccc(-c3scnc3C)cc2)[C@@H](C)CO[C@H]2C[C@@H](Oc3cc(N4C5CCC4CN(c4cc(-c6ccccc6O)nnc4N)C5)ccn3)C2)on1 [compound 482, (2S,4R)-1-((2R,3R)-4-((1s,3S)-3-((4-(3-(3-amino-6-(2-hydroxyphenyl)pyridazin-4-yl)-3,8-diazabicyclo[3.2.1]octan-8-yl)pyridin-2-yl)oxy)cyclobutoxy)-3-methyl-2-(3-methylisoxazol-5-yl)butanoyl)-4-hydroxy-N-((S)-1-(4-(4-methylthiazol-5-yl)phenyl)ethyl)pyrrolidine-2-carboxamide] | > 30 | – | – | – |
| Cc1ncsc1-c1ccc([C@H](C)NC(=O)[C@@H]2C[C@@H](O)CN2C(=O)[C@@H](c2cc(OCCC3CCN(C(=O)[C@H]4C[C@@H](CN5CCC(n6cc(-c7cc(-c8ccccc8O)nnc7N)cn6)CC5)C4)CC3)no2)C(C)C)cc1 [compound 466, (2S,4R)-1-((R)-2-(3-(2-(1-((1s,3S)-3-((4-(4-(3-amino-6-(2-hydroxyphenyl)pyridazin-4-yl)-1H-pyrazol-1-yl)piperidin-1-yl)methyl)cyclobutane-1-carbonyl)piperidin-4-yl)ethoxy)isoxazol-5-yl)-3-methylbutanoyl)-4-hydroxy-N-((S)-1-(4-(4-methylthiazol-5-yl)phenyl)ethyl)pyrrolidine-2-carboxamide] | > 30 | – | – | – |
| Cc1ncsc1-c1ccc([C@H](CCCC(N)=O)NC(=O)[C@@H]2C[C@@H](O)CN2C(=O)[C@H](c2cc(OCCN3CCC(O[C@H]4C[C@H](Oc5cc(N6C7CCC6CN(c6cc(-c8ccccc8O)nnc6N)C7)ccn5)C4)CC3)no2)C(C)C)cc1 [compound 555, (2S,4R)-N-((S)-5-amino-1-(4-(4-methylthiazol-5-yl)phenyl)-5-oxopentyl)-1-((2S)-2-(3-(2-(4-((1r,3S)-3-((4-(3-(3-amino-6-(2-hydroxyphenyl)pyridazin-4-yl)-3,8-diazabicyclo[3.2.1]octan-8-yl)pyridin-2-yl)oxy)cyclobutoxy)piperidin-1-yl)ethoxy)isoxazol-5-yl)-3-methylbutanoyl)-4-hydroxypyrrolidine-2-carboxamide] | – | – | > 30 | – |
